Assay results as given in patent US7109216B2 (priority 2001, dated 2006).
Where two headings read alike, the source gives them in different places.

Experiments:
[1] = molecular target: T1, human cannabinoid CB1 receptor (Homo sapiens, UniProt P21554); experiment: Cannabinoid CB1 antagonistic activity, forskolin-induced cAMP accumulation in CHO cells; type: cell-based; parameters: expressed in transfected cells; host or cells: CHO cells
Method: The cannabinoid CB1 antagonistic activity of compounds of the invention was determined by functional studies using CHO cells in which human cannabinoid CB1 receptors were stably expressed. Adenylyl cyclase was stimulated using forskolin and measured by quantifying the amount of accumulated cyclic AMP. Concomitant activation of CB1 receptors by CB1 receptor agonists (e.g. CP-55,940 or (R)-WIN-55,212–2) can attenuate the forskolin-induced accumulation of cAMP in a concentration-dependent manner. This CB1 receptor-mediated response can be antagonized by CB1 receptor antagonists such as the compounds of the invention.

[2] = molecular target: T1, human cannabinoid CB1 receptor; experiment: biochemical; type: binding; parameters: expressed in transfected cells; host or cells: Chinese hamster ovary (CHO) cells, membrane preparation; conditions: [3H]CP-55,940 radioligand, CHO cell membranes stably transfected with human CB1
Method: After incubation of a freshly prepared cell membrane preparation with the [^3H]-ligand, with or without addition of compounds of the invention, separation of bound and free ligand was performed by filtration over glassfiber filters. Radioactivity on the filter was measured by liquid scintillation counting.

[3] = antagonism of CB1 agonist (e.g. CP-55,940 or (R)-WIN-55,212-2) effect on forskolin-induced cAMP accumulation, CHO cells expressing human CB1, read-out: hCB1 pA2 (converted)
[4] = antagonism of CB1 agonist (e.g. CP-55,940 or (R)-WIN-55,212-2) effect on forskolin-induced cAMP accumulation, CHO cells expressing human CB1

T1 sequence (P21554 whole entry): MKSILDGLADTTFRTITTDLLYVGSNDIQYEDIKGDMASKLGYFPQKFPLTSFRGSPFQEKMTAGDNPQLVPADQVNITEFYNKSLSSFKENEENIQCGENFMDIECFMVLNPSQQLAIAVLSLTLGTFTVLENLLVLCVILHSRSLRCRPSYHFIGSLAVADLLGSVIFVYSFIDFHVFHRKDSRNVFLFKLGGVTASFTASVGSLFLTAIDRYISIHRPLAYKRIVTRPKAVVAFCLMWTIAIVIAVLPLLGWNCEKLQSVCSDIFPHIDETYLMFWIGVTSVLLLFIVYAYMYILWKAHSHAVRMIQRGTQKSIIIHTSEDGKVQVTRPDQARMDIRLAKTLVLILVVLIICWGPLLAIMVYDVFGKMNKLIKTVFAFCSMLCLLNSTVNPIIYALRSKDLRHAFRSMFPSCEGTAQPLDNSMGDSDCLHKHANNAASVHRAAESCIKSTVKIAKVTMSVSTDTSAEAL

SMILES | Kb [1, 3] | Ki ([2]; hCB1 pKi) | melting point | Kb [1] | Ki ([2]; read-out: hCB1 pKi (converted)) | hCB1 pA2 [1, 4]
Cc1c(C(=O)NN2CCCCC2)nc(-c2ccc(Cl)cc2Cl)n1-c1ccc(Br)cc1 [Example 17, 1-(4-Bromophenyl)-2-(2,4-dichlorophenyl)-5-methyl-N-(piperidin-1-yl)-1H-imidazole-4-carboxamide] | 1.58 nM | 50.1 nM | > 204 °C | – | – | –
CCc1c(C(=O)NN2CCCCC2)nc(-c2ccc(Cl)cc2Cl)n1-c1ccc(Br)cc1 [Example 19, 1-(4-Bromophenyl)-2-(2,4-dichlorophenyl)-5-ethyl-N-(piperidin-1-yl)-1H-imidazole-4-carboxamide] | 1.26 nM | 31.6 nM | > 140 °C | – | – | –
CCc1c(C(=O)NC2CCCCC2)nc(-c2ccc(Cl)cc2Cl)n1-c1ccc(Br)cc1 [Example 20, 1-(4-Bromophenyl)-N-cyclohexyl-2-(2,4-dichlorophenyl)-5-ethyl-1H-imidazole-4-carboxamide] | < 1 nM | 100 nM | > 135 °C | – | – | –
O=C(NN1CCCCCC1)c1cn(-c2ccc(Br)cc2)c(-c2ccc(Cl)cc2Cl)n1 [Example 25, N-(Azepan-1-yl)-1-(4-bromophenyl)-2-(2,4-dichlorophenyl)-1H-imidazole-4-carboxamide] | – | – | 201 to 204 °C | 10 nM | 126 nM | –
COc1cc(Cl)ccc1-c1nc(C(=O)NC2CCCCC2)cn1-c1ccc(Cl)cc1 [Example 29, 1-(4-Chlorophenyl)-N-cyclohexyl-2-(2-methoxy-4-chlorophenyl)-1H-imidazole-4-carboxamide] | – | – | 177 to 179 °C | 100 nM | 398 nM | –
COc1ccc(-n2cc(C(=O)NC3CCCCC3)nc2-c2ccc(Cl)cc2Cl)cc1 [Example 36, N-Cyclohexyl-2-(2,4-dichlorophenyl)-1-(4-methoxyphenyl)-1H-imidazole-4-carboxamide] | 6.31 nM | 158 nM | 175 to 176 °C | – | – | –
O=C(NC1CCCCC1)c1cn(-c2ccc(Cl)cc2)c(-c2ccc(Cl)cc2C(F)(F)F)n1 [Example 38, 1-(4-Chlorophenyl)-N-cyclohexyl-2-(2-trifluoromethyl-4-chlorophenyl)-1H-imidazole-4-carboxamide] | – | – | 172 °C | 20 nM | 200 nM | –
O=C(NN1CCCCC1)c1cn(-c2ccc(Cl)cc2)c(-c2ccc(Cl)cc2C(F)(F)F)n1 [Example 39, 1-(4-Chlorophenyl)-N-(piperidin-1-yl)-2-(2-trifluoromethyl-4-chlorophenyl)-1H-imidazole-4-carboxamide] | – | – | 219 °C | 50.1 nM | 316 nM | –
O=C(NN1CCCCC1)c1cn(-c2ccc(C(F)(F)F)cc2)c(-c2ccc(Cl)cc2Cl)n1 [Example 46, 2-(2,4-dichlorophenyl)-N-(piperidin-1-yl)-1-(4-(trifluoromethyl)phenyl)-1H-imidazole-4-carboxamide] | 6.31 nM | 50.1 nM | > 200 °C (dec.) | – | – | –
O=C(NC1CCCCC1)c1cn(-c2ccc(C(F)(F)F)cc2)c(-c2ccc(Cl)cc2Cl)n1 [Example 48, N-Cyclohexyl-2-(2,4-dichlorophenyl)-1-(4-(trifluoromethyl)phenyl)-1H-imidazole-4-carboxamide] | – | – | 199 to 200 °C | 0.251 nM | 316 nM | –
Cc1c(C(=O)NN2CCCCC2)nc(-c2ccc(Cl)cc2Cl)n1-c1ccc(F)cc1 [Example 62, 2-(2,4-Dichlorophenyl)-1-(4-fluorophenyl)-5-methyl-N-(piperidin-1-yl)-1H-imidazole-4-carboxamide] | – | 31.6 nM | 223 to 224 °C | – | – | 7.7
COc1ccc(-n2c(-c3ccc(Cl)cc3Cl)nc(C(=O)NN3CCCCC3)c2C)cc1 [Example 63, 2-(2,4-Dichlorophenyl)-5-methyl-1-(4-methoxyphenyl)-N-(piperidin-1-yl)-1H-imidazole-4-carboxamide] | 1 nM | 79.4 nM | > 90 °C (dec.) | – | – | –
Cc1c(C(=O)NN2CC3CCCC3C2)nc(-c2ccc(Cl)cc2Cl)n1-c1ccc(Cl)cc1 (centres unmarked) [Example 81, 1-(4-Chlorophenyl)-2-(2,4-dichlorophenyl)-N-(hexahydrocyclopenta-[c]pyrrol-2(1H)-yl)-5-methyl-1H-imidazole-4-carboxamide] | – | 31.6 nM | 143 to 146 °C | – | – | 9.8
Cc1c(C(=O)NC2CC3CCC2C3)nc(-c2ccc(Cl)cc2Cl)n1-c1ccc(Cl)cc1 (stereo not drawn) [Example 84, N-(Exo-bicyclo[2.2.1]hept-2-yl)-1-(4-chlorophenyl)-2-(2,4-dichlorophenyl)-5-methyl-1H-imidazole-4-carboxamide] | 1.26 nM | 15.8 nM | 194 to 195 °C | – | – | –
Cc1c(C(=O)N[C@H]2CC[C@H](O)CC2)nc(-c2ccc(Cl)cc2Cl)n1-c1ccc(Cl)cc1 [Example 86, 1-(4-Chlorophenyl)-2-(2,4-dichlorophenyl)-N-(trans-4-hydroxycyclohexyl)-5-methyl-1H-imidazole-4-carboxamide] | 15.8 nM | 126 nM | 160 °C (dec.) | – | – | –
Cc1c(C(=O)NN2CCCCCC2)nc(-c2ccc(Cl)cc2Cl)n1-c1ccc(Cl)cc1 [Example 92, N-(Azepan-1-yl)-1-(4-chlorophenyl)-2-(2,4-dichlorophenyl)-5-methyl-1H-imidazole-4-carboxamide] | 1.58 nM | 63.1 nM | 147 to 149 °C | – | – | –
Cc1c(C(=O)NN2CCCC2)nc(-c2ccc(Cl)cc2Cl)n1-c1ccc(Cl)cc1 [Example 93, 1-(4-Chlorophenyl)-2-(2,4-dichlorophenyl)-5-methyl-N-(pyrrolidin-1-yl)-1H-imidazole-4-carboxamide] | – | 20 nM | 205 to 206 °C | – | – | 8.2
Cc1c(C(=O)NN2CCOCC2)nc(-c2ccc(Cl)cc2Cl)n1-c1ccc(Cl)cc1 [Example 94, 1-(4-Chlorophenyl)-2-(2,4-dichlorophenyl)-5-methyl-N-(morpholin-4-yl)-1H-imidazole-4-carboxamide] | – | 100 nM | 225 °C (dec.) | – | – | 7.5
Cc1c(C(=O)NCc2ccc(C(F)(F)F)cc2)nc(-c2ccc(Cl)cc2Cl)n1-c1ccc(Cl)cc1 [Example 106, 1-(4-Chlorophenyl)-2-(2,4-dichlorophenyl)-5-methyl-N-(4-(trifluoromethyl)benzyl)-1H-imidazole-4-carboxamide] | – | 100 nM | 232 °C | – | – | 8.9
Cc1c(C(=O)NC2CCCC2)nc(-c2ccc(Cl)cc2Cl)n1-c1ccc(Cl)cc1 [Example 107, 1-(4-Chlorophenyl)-N-cyclopentyl-2-(2,4-dichlorophenyl)-5-methyl-1H-imidazole-4-carboxamide] | – | 158 nM | 172 °C | – | – | 8.9
Cc1c(C(=O)NC2CCCCCC2)nc(-c2ccc(Cl)cc2Cl)n1-c1ccc(Cl)cc1 [Example 108, 1-(4-Chlorophenyl)-N-cycloheptyl-2-(2,4-dichlorophenyl)-5-methyl-1H-imidazole-4-carboxamide] | – | 7.94 nM | 154 to 156 °C | – | – | 9.1
N#Cc1c(C(=O)NN2CCCCC2)nc(-c2ccc(Cl)cc2Cl)n1-c1ccc(Cl)cc1 [Example 110, 1-(4-chlorophenyl)-5-cyano-2-(2,4-dichlorophenyl)-N-(piperidin-1-yl)-1H-imidazole-4-carboxamide] | – | 31.6 nM | – | – | – | 8.6
O=C(NN1CCCCC1)c1nc(-c2ccc(Cl)cc2Cl)n(-c2ccc(Cl)cc2)c1I [Example 111, 1-(4-Chlorophenyl)-2-(2,4-dichlorophenyl)-5-iodo-N-(piperidin-1-yl)-1H-imidazole-4-carboxamide] | 2.51 nM | 6.31 nM | 196 to 201 °C | – | – | –
O=C(NN1CCCCC1)c1nc(-c2ccc(Cl)cc2Cl)n(-c2ccc(Cl)cc2)c1Br [Example 117, 1-(4-chlorophenyl)-2-(2,4-dichlorophenyl)-5-bromo-N-(piperidin-1-yl)-1H-imidazole-4-carboxamide] | 2.51 nM | 10 nM | 181.5 to 183 °C | – | – | –
CS(=O)(=O)c1c(C(=O)NN2CCCCC2)nc(-c2ccc(Cl)cc2Cl)n1-c1ccc(Cl)cc1 [Example 118, 1-(4-Chlorophenyl)-2-(2,4-dichlorophenyl)-5-methylsulfonyl-N-(piperidin-1-yl)-1H-imidazole-4-carboxamide] | – | 15.8 nM | 181 to 185 °C (dec.) | – | – | 8.5
CSc1c(C(=O)NN2CCCCC2)nc(-c2ccc(Cl)cc2Cl)n1-c1ccc(Cl)cc1 [Example 120, 1-(4-Chlorophenyl)-2-(2,4-dichlorophenyl)-5-methylsulfanyl-N-(piperidin-1-yl)-1H-imidazole-4-carboxamide] | 0.631 nM | 12.6 nM | 170 °C (dec.) | – | – | –
